Test [1] relates to Puccinia recondita f. Sp. Tritici. The test can be described thus: Puccinia recondita f. sp. tritici / wheat / leaf disc curative (brown rust). It is filed as in vivo. The conditions noted are these: foliar, 144 h, 200 ppm in the applied formulation, wheat leaf segments cv. Kanzler, applied 1 day after inoculation, assessed 6 to 8 days after application, vs untreated, read-out: disease control. On the procedure: (§1) Leaf disks or leaf segments of various plant species are cut from plants grown in a greenhouse. The cut leaf disks or segments are placed in multiwell plates (24-well format) onto water agar. The leaf disks are sprayed with a test solution before (preventative) or after (curative) inoculation. Compounds to be tested are prepared as DMSO solutions (max. 10 mg/ml) which are diluted to the appropriate concentration with 0.025% Tween20 just before spraying. The inoculated leaf disks or segments are incubated under defined conditions (temperature, relative humidity, light, etc.) according to the respective test system. A single evaluation of disease level is carried out 3 to 14 days after inoculation, depending on the pathosystem. Percent disease control relative to the untreated check leaf disks or segments is then calculated.
Wheat leaf segments cv. Kanzler are placed on agar in multiwell plates (24-well format). The leaf segments are then inoculated with a spore suspension of the fungus. Plates were stored in darkness at 19° C. and 75% relative humidity. The formulated test compound diluted in water was applied 1 day after inoculation. The leaf segments were incubated at 19° C. and 75% relative humidity under a light regime of 12 hours light/12 hours darkness in a climate cabinet and the activity of a compound was assessed as percent disease control compared to untreated when an appropriate level of disease damage appears in untreated check leaf segments (6 to 8 days after application).
(§2) The following compounds at 200 ppm in the applied formulation give at least 80% disease control in this test when compared to untreated control leaf disks under the same conditions, which show extensive disease development.

Test [2] has as its system Glomerella Lagenarium (Colletotrichum Lagenarium). The test can be described thus: Glomerella lagenarium (Colletotrichum lagenarium) liquid culture / cucumber / preventative (anthracnose). It is filed as cell-based. The conditions noted are these: Colletotrichum orbiculare; 20 ppm in the applied formulation; liquid culture in PDB, 24° C., inhibition of growth measured photometrically 3 to 4 days after application, vs untreated; read-out: disease control. The protocol:
Mycelia fragments or conidia suspensions of a fungus prepared either freshly from liquid cultures of the fungus or from cryogenic storage, are directly mixed into nutrient broth. DMSO solutions of the test compound (max. 10 mg/ml) are diluted with 0.025% Tween20 by a factor of 50 and 10 μl of this solution is pipetted into a microtiter plate (96-well format). The nutrient broth containing the fungal spores/mycelia fragments is then added to give an end concentration of the tested compound. The test plates are incubated in the dark at 24° C. and 96% relative humidity. The inhibition of fungal growth is determined photometrically after 2 to 7 days, depending on the pathosystem, and percent antifungal activity relative to the untreated check is calculated.
Conidia of the fungus from cryogenic storage are directly mixed into nutrient broth (PDB—potato dextrose broth). After placing a (DMSO) solution of test compound into a microtiter plate (96-well format), the nutrient broth containing the fungal spores is added.
The following compounds at 20 ppm in the applied formulation give at least 80% disease control in this test when compared to untreated control under the same conditions, which show extensive disease development.

Test [3] deals with Puccinia recondita f. Sp. Tritici. The test can be described thus: Puccinia recondita f. sp. tritici / wheat / leaf disc preventative (brown rust). It is filed as in vivo. The conditions noted are these: foliar, 168 h, 200 ppm in the applied formulation, wheat leaf segments cv. Kanzler, preventative, inoculated 1 day after application, assessed 7 to 9 days after application, vs untreated, read-out: disease control. The protocol:
as §1
Wheat leaf segments cv. Kanzler were placed on agar in multiwell plates (24-well format) and sprayed with the formulated test compound diluted in water. The leaf disks were inoculated with a spore suspension of the fungus 1 day after application. The inoculated leaf segments were incubated at 19° C. and 75% relative humidity (rh) under a light regime of 12 hours light/12 hours darkness in a climate cabinet and the activity of a compound was assessed as percent disease control compared to untreated when an appropriate level of disease damage appears in untreated check leaf segments (7 to 9 days after application).
as §2

As to `FC(F)(F)c1nc(-c2ccc(Cn3ncnc3C(F)(F)F)cc2)no1` [Compound 1.38, 5-(trifluoromethyl)-3-[4-[[5-(trifluoromethyl)-1,2,4-triazol-1-yl]methyl]phenyl]-1,2,4-oxadiazole], in test [1], the pest or weed control at 200 ppm was no less than 80%. The inhibition of growth at 20 ppm in test [2] was no less than 80%.
`FC(F)(F)c1nc(-c2ccc(Cn3cc(I)cn3)cc2)no1` [Compound 1.44, 3-[4-[(4-iodopyrazol-1-yl)methyl]phenyl]-5-(trifluoromethyl)-1,2,4-oxadiazole]: the pest or weed control at 200 ppm in test [1] and in test [3] was no less than 80% throughout. The inhibition of growth at 20 ppm in test [2] was no less than 80%.
Consider `N#Cc1ncn(Cc2ccc(-c3noc(C(F)(F)F)n3)cc2)c1C#N` [Compound 1.45, 1-[[4-[5-(trifluoromethyl)-1,2,4-oxadiazol-3-yl]phenyl]methyl]imidazole-4,5-dicarbonitrile], for which the pest or weed control at 200 ppm in test [1] and in test [3] was no less than 80% each time. In addition, the inhibition of growth at 20 ppm in test [2] is no less than 80%.
As to `FC(F)(F)c1nc(-c2ccc(Cn3cnc(Cl)c3Cl)cc2)no1` [Compound 1.46, 3-[4-[(4,5-dichloroimidazol-1-yl)methyl]phenyl]-5-(trifluoromethyl)-1,2,4-oxadiazole], the pest or weed control at 200 ppm in test [1] and in test [3] was no less than 80% throughout. Further, the inhibition of growth at 20 ppm in test [2] was no less than 80%.
As to `Fc1ccc2ccn(Cc3ccc(-c4noc(C(F)(F)F)n4)cc3)c2c1` [Compound 1.54, 3-[4-[(6-fluoroindol-1-yl)methyl]phenyl]-5-(trifluoromethyl)-1,2,4-oxadiazole], the pest or weed control at 200 ppm in test [1] is no less than 80%. In addition, in test [2], the inhibition of growth at 20 ppm was no less than 80%.
In the case of `FC(F)(F)c1cnn(Cc2ccc(-c3noc(C(F)(F)F)n3)cc2)c1` [Compound 1.55, 5-(trifluoromethyl)-3-[4-[[4-(trifluoromethyl)pyrazol-1-yl]methyl]phenyl]-1,2,4-oxadiazole], the pest or weed control at 200 ppm in test [1] and in test [3] was no less than 80% throughout. The inhibition of growth at 20 ppm in test [2] is no less than 80%.
On to `O=Cc1cccn1Cc1ccc(-c2noc(C(F)(F)F)n2)cc1` [Compound 1.62, 1-[[4-[5-(trifluoromethyl)-1,2,4-oxadiazol-3-yl]phenyl]methyl]pyrrole-2-carbaldehyde], for which the pest or weed control at 200 ppm in test [1] and in test [3] was no less than 80% each time. In addition, the inhibition of growth at 20 ppm in test [2] was no less than 80%.
As for `FC(F)(F)c1nc(-c2ccc(Cn3cc(Cl)cn3)cc2)no1` [Compound 1.67, 3-[4-[(4-chloropyrazol-1-yl)methyl]phenyl]-5-(trifluoromethyl)-1,2,4-oxadiazole], the pest or weed control at 200 ppm in test [1] and in test [3] was no less than 80% throughout. Moreover, in test [2], the inhibition of growth at 20 ppm was no less than 80%.
For `O=Cc1nccn1Cc1ccc(-c2noc(C(F)(F)F)n2)cc1` [Compound 1.71, 1-[[4-[5-(trifluoromethyl)-1,2,4-oxadiazol-3-yl]phenyl]methyl]imidazole-2-carbaldehyde], the pest or weed control at 200 ppm in test [1] was no less than 80%.
Take `N#Cc1cnn(Cc2ccc(-c3noc(C(F)(F)F)n3)cc2)c1` [Compound 1.76, 1-[[4-[5-(trifluoromethyl)-1,2,4-oxadiazol-3-yl]phenyl]methyl]pyrazole-4-carbonitrile]: the pest or weed control at 200 ppm in test [1] and in test [3] was no less than 80% in each case. The inhibition of growth at 20 ppm in test [2] was no less than 80%.
`FC(F)(F)c1nc(-c2ccc(Cn3cc(Br)cn3)cc2)no1` [Compound 1.77, 3-[4-[(4-bromopyrazol-1-yl)methyl]phenyl]-5-(trifluoromethyl)-1,2,4-oxadiazole]: in test [1], the pest or weed control at 200 ppm is no less than 80%. For the same molecule, in test [2], the inhibition of growth at 20 ppm is no less than 80%.
In the case of `Cc1cn(Cc2ccc(-c3noc(C(F)(F)F)n3)cc2)c(C)n1` [Compound 1.78, 3-[4-[(2,4-dimethylimidazol-1-yl)methyl]phenyl]-5-(trifluoromethyl)-1,2,4-oxadiazole], the pest or weed control at 200 ppm in test [1] was no less than 80%.
Regarding `Cc1nccn1Cc1ccc(-c2noc(C(F)(F)F)n2)cc1F` [Compound 1.123, 3-[3-fluoro-4-[(2-methylimidazol-1-yl)methyl]phenyl]-5-(trifluoromethyl)-1,2,4-oxadiazole], the pest or weed control at 200 ppm in test [1] and in test [3] was no less than 80% throughout.
With `Fc1cc(-c2noc(C(F)(F)F)n2)ccc1Cn1cnc2ccccc21` [Compound 1.126, 3-[4-(benzimidazol-1-ylmethyl)-3-fluoro-phenyl]-5-(trifluoromethyl)-1,2,4-oxadiazole], the inhibition of growth at 20 ppm in test [2] was no less than 80%. Further, the pest or weed control at 200 ppm in test [3] was no less than 80%.
On to `Cc1cn(Cc2ccc(-c3noc(C(F)(F)F)n3)cn2)c(C)n1` [Compound 1.134, 3-[6-[(2,4-dimethylimidazol-1-yl)methyl]-3-pyridyl]-5-(trifluoromethyl)-1,2,4-oxadiazole], for which, in test [1], the pest or weed control at 200 ppm was no less than 80%.
In the case of `FC(F)(F)c1nc(-c2ccc(Cn3ccnc3)nc2)no1` [Compound 1.141, 3-[6-(imidazol-1-ylmethyl)-3-pyridyl]-5-(trifluoromethyl)-1,2,4-oxadiazole], the pest or weed control at 200 ppm in test [1] and in test [3] was no less than 80% in each case.
Turning to `FC(F)(F)c1nc(-c2ccc(Cn3cncn3)nc2)no1` [Compound 1.143, 3-[6-(1,2,4-triazol-1-ylmethyl)-3-pyridyl]-5-(trifluoromethyl)-1,2,4-oxadiazole], in test [1], the pest or weed control at 200 ppm is no less than 80%. Besides, the inhibition of growth at 20 ppm in test [2] was no less than 80%.
With `Cc1cn(Cc2ccc(-c3noc(C(F)(F)F)n3)cc2F)c(C)n1` [Compound 1.145, 3-[4-[(2,4-dimethylimidazol-1-yl)methyl]-3-fluoro-phenyl]-5-(trifluoromethyl)-1,2,4-oxadiazole], the pest or weed control at 200 ppm in test [1] and in test [3] was no less than 80% each time.
For `O=C(NCC1CC1)c1cnn(Cc2ccc(-c3noc(C(F)(F)F)n3)cc2)c1` [Compound 1.249, N-(cyclopropylmethyl)-1-[[4-[5-(trifluoromethyl)-1,2,4-oxadiazol-3-yl]phenyl]methyl]pyrazole-4-carboxamide], the inhibition of growth at 20 ppm in test [2] was no less than 80%. Further, the pest or weed control at 200 ppm in test [3] was no less than 80%.
For `N#Cc1ncnn1Cc1ccc(-c2noc(C(F)(F)F)n2)nc1` [Compound 1.258, 2-[[6-[5-(trifluoromethyl)-1,2,4-oxadiazol-3-yl]-3-pyridyl]methyl]-1,2,4-triazole-3-carbonitrile], in test [1], the pest or weed control at 200 ppm is no less than 80%. In test [2], the inhibition of growth at 20 ppm was no less than 80%.
For `CNC(=O)c1cn(Cc2ccc(-c3noc(C(F)(F)F)n3)cc2)nn1` [Compound 1.272, N-methyl-1-[[4-[5-(trifluoromethyl)-1,2,4-oxadiazol-3-yl]phenyl]methyl]triazole-4-carboxamide], the pest or weed control at 200 ppm in test [1] was no less than 80%.
For the molecule `CON=C1CCN(Cc2ccc(-c3noc(C(F)(F)F)n3)cc2)CC1` [Compound 1.293, N-methoxy-1-[[4-[5-(trifluoromethyl)-1,2,4-oxadiazol-3-yl]phenyl]methyl]piperidin-4-imine], in test [1], the pest or weed control at 200 ppm was no less than 80%.

Source of the values: patent US10798941B2, “Microbiocidal oxadiazole derivatives” (SYNGENTA PARTICIPATIONS AG, priority 2016, dated 2020).
